Entries after “also recorded” stand apart in the source; their conditions may differ. Where two headings read alike, the source gives them in different places. Blank lines part the entries; values can stand above or below the compound they belong to.
Legend:
[1] = system: rat models of hypoxia-induced pulmonary hypertension; settings: cited from earlier work
[2] = Serum pharmacokinetics after single oral dose in normoxic calves; settings: for ratio of metabolite AUC to vorinostat AUC: calves
Description: (§8) Pharmacokinetic parameters were calculated by a non-compartmental model using Phoenix WinNonlin v8.1 ([Wagner, 1993]).

in vivo = settings: male, Holstein, bovine, serum, po, 235 mg
Description: as §8

[3] = cited from earlier work; for metabolite AUC relative to that of vorinostat: in humans
bovine PH-fibs = system: bovine PH-fibs; design: method as in Li et al., 2011; settings: ref Li et al., 2011; cited from earlier work
[4] = system: calves with hypoxia-induced pulmonary hypertension; experiment: Echocardiography in neonatal calf model of hypoxia-induced PH; format: in vivo, bovine calf
Source text: (§1) The bovine calf hypoxia model of PH previously reported ([Stenmark et al., 1987]; [Lemler et al., 2000]; [Bartels et al., 2016]) consistently produces significant pulmonary hypertension (mean PAP > 100 mmHg) and subsequent tissue changes on post-mortem examination ([Stenmark et al., 1987]). Animals display blood gas PaO2 and PaCO2 values consistent to severe hypoxia and PH ([Stenmark et al., 1987]; [Lemler et al., 2000]). Male Holstein dairy calves at 7 days of age (45–50 kg) were sourced from a local dairy farm. This study utilized a case comparison design. […] Hypoxic calves (Groups 1 and 2) were exposed to hypobaric hypoxia at simulated elevation of 10,000 feet for 48–72 h to allow acclimation then exposed to hypobaric hypoxia at the study condition of 15,000 feet simulated elevation (PB = 430 mmHg, Hypo-Hyperbaric Chamber Facility, Colorado State University Department of Physiology). The standard exposure interval was 14 days at this elevation. Control normoxic calves remained at ambient Fort Collins pressure (4,950 feet PB = 630 mmHg).
(§2) This dosing regimen was selected to minimize adverse effects based on guidelines for human pediatric patients (Lia Gore MD, Center for Cancer and Blood Disorders, Children’s Hospital Colorado, personal communication.) Group 2 calves received no drug treatment. At this age, the calf digestive system has not matured and the abomasum functions as the sole stomach similar to humans.
(§3) Echocardiography was utilized for non-invasive sequential assessment of cardiopulmonary function as described previously ([Lemler et al., 2000]; [Bartels et al., 2016]). […] The progression of pulmonary hypertension was evaluated by sequential echocardiography at the study condition (15,000 feet or normoxia) on study days 4, 8 and terminal day 14. Parasternal long and short axis recordings were obtained over 3–4 cardiac cycles, together with M-mode traces as indicated, using GE Echo PACS (General Electric, Chicago, IL, United States) or MicroDicom^1 software. Echocardiographic findings consistent with PH (abnormal RV size and function), or interventricular septum abnormalities including abnormal motion or flattening were evaluated ([Boon, 2011]). Septal motion and flattening were further quantitated by eccentricity index EI on short-axis views with EchoPACS. Tricuspid or mitral valve regurgitation was scored qualitatively as trace, mild, moderate or severe. Global RV function was assessed qualitatively. When RV images on long-axis included the entire chamber, RV fractional area change (FAC) was calculated with EchoPACS. RV fractional shortening was measured from M-mode recordings using MicroDicom. Calves were monitored following each non-terminal echo procedure for recovery including standing and interacting normally, and normal milk intake.

HDAC1 = experiment: Immunoblotting of HDAC abundance in RV and lung homogenates; format: in vivo, bovine calf; settings: vorinostat over initial 5 days of hypoxia, measured at end of 14 days hypoxic exposure, vs untreated PH
Description: At the conclusion of the study period, calves were deeply anesthetized and euthanized. Tissue samples from right ventricle free wall and distal lung parenchyma were snap frozen in liquid nitrogen for laboratory analysis. RNA isolation and quantitative PCR were performed as described previously ([Frid et al., 2009]). mRNA abundance was quantitated relative to HPRT by the delta Ct method. The following primers were used (5′–3′). […] TCCA; Osteopontin (SPPA), Fwd:[…]; Hypoxanthine ribosyl transferase (HPRT), Fwd:[…], Rev:[…].
Procedures for immunoblotting and densitometry were performed as described previously ([Li et al., 2011]). HDAC antibodies were obtained from Cell Signaling Technology (HDAC1, #5356; HDAC5, #20458).
(A) Immunoblotting HDAC abundance.

[5] = system: IL-6, CSF2, SDF1, IL1β, IL-1RA, TLR2, POSN mRNAs; experiment: Pairwise qPCR of inflammatory and matrikine gene expression; format: in vivo, bovine calf; settings: hypoxic vorinostat-treated vs. untreated calf
Description: At the conclusion of the study period, calves were deeply anesthetized and euthanized. Tissue samples from right ventricle free wall and distal lung parenchyma were snap frozen in liquid nitrogen for laboratory analysis. RNA isolation and quantitative PCR were performed as described previously ([Frid et al., 2009]). mRNA abundance was quantitated relative to HPRT by the delta Ct method. The following primers were used (5′–3′). Fibronectin, Extracellular Domain A (ED-A Fn), Fwd:[…], Rev:[…]; Tenascin C (TnC), Fwd:G […], Rev:[…] TCCA; Osteopontin (SPPA), Fwd:[…] CACAGA, Rev:[…]; Periostin (POSTN), Fwd:[…], Rev:CAC […]; Skeletal muscle alpha-actin (ACTA1), Fwd:[…], Rev:GAAGGT […]; Brain natriuretic peptide (NPPB), Fwd:[…], Rev:[…]; Hypoxanthine ribosyl transferase (HPRT), Fwd:[…], Rev:[…].
Figure 2. Comparison of inflammatory and matrikine gene expression in vorinostat treated versus untreated hypoxic calves. mRNA abundance was quantitated as described in Methods. For each indicated mRNA, abundance in the vorinostat-treated PH calf was determined relative to that in the untreated PH calf (indicated by dotted line at unity).

[6] = system: brain natriuretic peptide (BNP) and skeletal muscle alpha-actin mRNAs; experiment: Real-time PCR of genes in RV hypertrophic remodeling; format: in vivo, bovine calf
Description: (§4) At the conclusion of the study period, calves were deeply anesthetized and euthanized. Tissue samples from right ventricle free wall and distal lung parenchyma were snap frozen in liquid nitrogen for laboratory analysis. RNA isolation and quantitative PCR were performed as described previously ([Frid et al., 2009]). mRNA abundance was quantitated relative to HPRT by the delta Ct method. The following primers were used (5′–3′). Fibronectin, Extracellular Domain A (ED-A Fn), Fwd:[…], Rev:[…]; Tenascin C (TnC), Fwd:G […], Rev:[…] TCCA; Osteopontin (SPPA), Fwd:[…] […]
(§5) (A) Immunoblotting HDAC abundance. RV and lung homogenates were prepared and HDAC abundance was determined by immunoblotting as described in section “Materials and Methods.” Additional untreated control and hypoxic animals were analyzed in parallel for comparison. Protein abundance was quantitated densitometrically relative to beta-actin. *p < 0.05 vs. control (unpaired two-tailed t-test). […] Abundances of indicated mRNAs were quantitated by real-time PCR as described in section “Materials and Methods.” Animals used in the present study were analyzed together with samples from additional untreated hypoxic and normoxic calves (n = 4 each) that were managed according to the same animal protocols described in section “Materials and Methods,” and studied around the same period of time. […]

[7] = system: calves with hypoxia-induced pulmonary hypertension; experiment: Hemodynamics by right heart catheterization, hypoxic calf; format: in vivo, bovine calf
Source text: as §1, §2
(§6) Standard measurements of PAP and cardiac output were performed by right heart catheterization concurrent with the final echo in both the two normoxic and two hypoxic calves on study day 14 as described previously ([Stenmark et al., 1987]; [Lemler et al., 2000]).
(§7) Data were obtained from right heart catheterization as described in Materials and Methods. Standard units: Pressure, mm Hg; Cardiac output, L/min; PA, pulmonary artery.

[8] = system: calves in normoxic or hypoxic conditions; experiment: Clinical signs and blood chemistry during and after dosing; format: in vivo, bovine calf
Source text: as §2

normoxic control calves [9] = experiment: Hemodynamics by right heart catheterization, normoxic calves; format: in vivo, bovine calf
Source text: as §1, §2, §6, §7

[10] = design: method as in Fraczek et al., 2013; settings: dogs, oral; ref Fraczek et al., 2013; cited from earlier work
[11] = cited from earlier work
normoxic control calves [12] = experiment: Echocardiography in normoxic vorinostat-treated control calves; format: in vivo, bovine calf
Source text: as §1, §2, §3

[13] = system: ED-A Fn, tenascin C, osteopontin and periostin mRNAs; experiment: Real-time PCR of genes in pulmonary remodeling; format: in vivo, bovine calf
Description: as §4, §5

[14] = design: method as in Fraczek et al., 2013; settings: rats, oral; ref Fraczek et al., 2013; cited from earlier work
[15] = ref Cho et al., 2010, Cavasin et al., 2012
[16] = single oral dose, four normoxic calves
[17] = Hypoxic vorinostat treated calf, study day 14
[18] = vorinostat-treated PH calf, day 14
[19] = Normoxic vorinostat treated #1, study day 14
[20] = Normoxic vorinostat treated #2, study day 14
[21] = human adult dose of 400 mg daily, ref Iwamoto et al., 2013

Compound: Nc1ccccc1NC(=O)c1ccc(CNc2nccc(-c3cccnc3)n2)cc1 [MCD-0103]
RV function [1, 15]: preserved | RV hypertrophic and pro-fibrotic remodeling [1, 15]: attenuated

Compound: Nc1ccccc1NC(=O)c1ccc(CNC(=O)OCc2cccnc2)cc1 [MS-275]
RV function [1, 15]: preserved | RV hypertrophic and pro-fibrotic remodeling [1, 15]: attenuated

ratio of metabolite AUC to vorinostat AUC ([2]; single oral dose): ~20 fold | Tmax (in vivo): 6 h
Compound: O=C(O)CCC(=O)Nc1ccccc1 [Succininanilic Acid, succinanilic acid]
metabolite AUC relative to that of vorinostat ([3]; ref Iwamoto et al., 2013): 10–13 times

ratio of metabolite AUC to vorinostat AUC ([2]; single oral dose): ~3 fold
Compound: O=C(CCCCCCC(=O)Nc1ccccc1)NO[C@@H]1O[C@H](C(=O)O)[C@@H](O)[C@H](O)[C@H]1O [Vorinostat glucoronide]
metabolite AUC relative to that of vorinostat ([3]; ref Iwamoto et al., 2013): 3–4 times

Compound: CCC(=O)CCCCC[C@@H]1NC(=O)[C@H]2CCCCN2C(=O)[C@H]([C@@H](C)CC)NC(=O)[C@H](Cc2cn(OC)c3ccccc23)NC1=O [apicidin]
activated fibroblast phenotype (bovine PH-fibs): reversed

Compound: CCCC(CCC)C(=O)O [valproic acid]
RV hypertrophy [1, 15]: attenuated | hypoxia-induced PH in rats ([1]; ref Zhao et al. (2012)): inhibited

time until serum vorinostat returns to undetectable levels ([2]; after single oral administration): ≤ 24 h | integrated area under the concentration × time curve [2, 16]: ~1,500 nM•h | peak serum concentration [2, 16]: ~400 nM | time to peak serum concentration [2, 16]: ~4 h | Tmax (in vivo): ≤ 4 h | standard blood chemistry values ([8]; data not shown): within normal reference intervals | Cardiac Output (normoxic control calves [9]; [19]): 4.4 L/min | Mean PA Pressure (normoxic control calves [9]; [19]): 25.1 mm Hg | PA Pulse Pressure (normoxic control calves [9]; [19]): 17.6 mm Hg | Systolic PA Pressure (normoxic control calves [9]; [19]): 34.0 mm Hg | Cardiac Output (normoxic control calves [9]; [20]): 5.1 L/min | Mean PA Pressure (normoxic control calves [9]; [20]): 19.4 mm Hg | PA Pulse Pressure (normoxic control calves [9]; [20]): 14.5 mm Hg | Systolic PA Pressure (normoxic control calves [9]; [20]): 27.1 mm Hg | effect on hemodynamic parameters in normoxic calves (normoxic control calves [9]; compared to the authors' previous studies): did not affect | RV Fractional area change (FAC) (normoxic control calves [12]; Normoxic #2 calf, vorinostat administration, Study Day 14): 50.9% | RV fractional shortening (normoxic control calves [12]; control (normoxic vorinostat-treated) calf, day 14, M-mode): 50% | abundance of ED-A Fn, TNC, osteopontin and periostin mRNAs in normoxic animals ([13]; normoxic animals): not affected
Compound: O=C(CCCCCCC(=O)Nc1ccccc1)NO [vorinostat, suberanilohydroxamic acid]
RV Fractional area change (FAC) ([4]; Hypoxic #1 calf, vorinostat first 5 days, Study Day 14): 30.1% | septal distortion compared to untreated PH calf ([4]; vorinostat-treated PH calf, apical 4-chamber echo images): reduced septal distortion | RV fractional shortening ([4]; vorinostat-treated PH calf, day 14, M-mode): 20% | degree of RV dysfunction compared to untreated hypoxic calf ([4]; vorinostat-treated hypoxic calf, days 4, 8, and 14): consistently less severe | expression of HDAC1 in both lung and RV (HDAC1): tended to decrease | expression of pro-inflammatory mRNAs including IL-6, CSF2, SDF1, IL1β, IL-1RA, TLR2, and the matrikine POSN [5]: reduced expression | RV expression of BNP and skeletal muscle alpha-actin mRNAs ([6]; hypoxic calf, compared to calves with untreated PH): tended to decrease | RV mRNA abundance (BNP, skeletal muscle alpha-actin) of control calves ([6]; normoxic control calves): not affected | Cardiac Output [7, 17]: 5.5 L/min | Mean PA Pressure [7, 17]: 97.6 mm Hg | PA Pulse Pressure [7, 17]: 38.9 mm Hg | Systolic PA Pressure [7, 17]: 118.5 mm Hg | PA pulse pressure compared to untreated hypoxic calf [7, 18]: tended toward reduced; also recorded: substantially reduced | PA systolic pressure compared to untreated hypoxic calf [7, 18]: tended toward reduced; also recorded: slightly reduced | cardiac output compared to untreated hypoxic calf [7, 18]: increased; also recorded: increasing | mean PA pressure compared to untreated hypoxic calf [7, 18]: similar; also recorded: did not lower | adverse clinical signs attributable to vorinostat administration ([8]; during or following active dosing, normoxic or hypoxic conditions): No adverse clinical signs | bioavailability [10]: 11% | aqueous solubility [11]: poor | adverse cardiac effects (normoxic control calves [12]; based on echo and hemodynamic criteria): no evidence for adverse cardiac effects | echocardiographic evidence of negative impacts on cardiac function (normoxic control calves [12]; control normoxic calves, vorinostat treatment): not associated with echocardiographic evidence of negative impacts on cardiac function | lung expression of ED-A Fn, TNC, osteopontin and periostin mRNAs ([13]; hypertensive calves compared to untreated hypertensive calves): tended to reduce | AUC [3, 21]: 4,000–6,000 nM•h | Cmax [3, 21]: 1000 to 1500 nM | half-life ([3]; humans and other animal species, ref Mohamed et al., 2012, Fraczek et al., 2013, Iwamoto et al.): approximately 2 h | Bioavailability of oral vorinostat ([3]; humans, ref Fraczek et al., 2013): 43% | Tmax ([3]; post-fed humans, ref Iwamoto et al., 2013): ~4 h | bioavailability [14]: 2% | activated fibroblast phenotype (bovine PH-fibs): reversed

Source: paper PMC8450341 (Frontiers in Physiology, 2021)
